From ChEMBL document CHEMBL1201862, “PubChem BioAssay data set” (2004)
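The compound was tested at five concentrations on cells cultured in 96-well plates, with a 48-hour exposure period. GI50 marks 50% less growth.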 Active and inactive are the calls of the source. Rule as the data show it: active = GI50 up to about 1.1 µM and inactive = higher.

How the values were obtained:
Assay in all cases: NCI-60 cell line screen, 48 h
786-0 = system: 786-0
A498 = system: A498
A549 = system: A549
CAKI-1 = system: CAKI-1
HCT-116 = system: HCT-116
HCT-15 = system: HCT-15
HOP-62 = system: HOP-62
Hs-578T = system: Hs-578T
MDA-MB-435 = system: MDA-MB-435
NCI-H522 = system: NCI-H522
OVCAR-3 = system: OVCAR-3
OVCAR-8 = system: OVCAR-8
SF-295 = system: SF-295
SK-OV-3 = system: SK-OV-3
SN12C = system: SN12C
SR = system: SR
U-251 = system: U-251
UACC-62 = system: UACC-62
CCRF-CEM = system: CCRF-CEM
LOX IMVI = system: LOX IMVI

SMILES | GI50 (786-0) | GI50 (A498) | GI50 (A549) | GI50 (CAKI-1) | GI50 (HCT-116) | GI50 (HCT-15) [µM] | GI50 (HOP-62) | GI50 (Hs-578T) | GI50 (MDA-MB-435) | GI50 (NCI-H522) | GI50 (OVCAR-3) | GI50 (OVCAR-8) | GI50 (SF-295) | GI50 (SK-OV-3) | GI50 (SN12C) | GI50 (SR) | GI50 (U-251) | GI50 (UACC-62) | GI50 (CCRF-CEM) | GI50 (LOX IMVI)
NS(=O)(=O)c1ccc(NCc2cnc3ccccc3c2)cc1 | 39.4 µM (inactive) | > 100 µM (inactive) | > 100 µM (inactive) | > 100 µM (inactive) | > 100 µM (inactive) | > 100 | > 100 µM (inactive) | 51.8 µM (inactive) | > 100 µM (inactive) | 28.1 µM (inactive) | > 100 µM (inactive) | 34.7 µM (inactive) | > 100 µM (inactive) | > 100 µM (inactive) | > 100 µM (inactive) | > 100 µM (inactive) | > 100 µM (inactive) | > 100 µM (inactive) |  | 
O=[N+]([O-])c1ccc(Cl)cc1N/N=C/c1cccc2cccnc12 | > 100 µM (inactive) |  | > 100 µM (inactive) | > 100 µM (inactive) | 54 µM (inactive) | > 100 | > 100 µM (inactive) | 30.8 µM (inactive) | > 100 µM (inactive) | > 100 µM (inactive) | > 100 µM (inactive) | 48.2 µM (inactive) | > 100 µM (inactive) | > 100 µM (inactive) | > 100 µM (inactive) | 15.3 µM (inactive) | 79.1 µM (inactive) | > 100 µM (inactive) | 34.8 µM (inactive) | 
COc1cc(/C=C2\C(=O)N(c3ccc(Cl)cc3)C(c3ccccc3)S2(=O)=O)cc(OC)c1OC (configuration not stated) | 39.4 µM (inactive) | > 45.5 µM (inactive) | 17.8 µM (inactive) | 38.5 µM (inactive) | 3.37 µM (inactive) | 1.03 | > 34.5 µM (inactive) | > 100 µM (inactive) | 0.394 µM (active) | 14.5 µM (inactive) | 25.4 µM (inactive) | 93.1 µM (inactive) | 11.9 µM (inactive) | 14 µM (inactive) | > 25.8 µM (inactive) |  | 29.1 µM (inactive) | 2.19 µM (inactive) | 8.53 µM (inactive) | 4.55 µM (inactive)
CC(NC(=O)C(OC(=O)C(C)NC(=O)OC(C)(C)C)C(C)C)C(=O)OC(C(=O)O)C(C)C (configuration not stated) | > 100 µM (inactive) |  | > 100 µM (inactive) | > 100 µM (inactive) |  | > 100 | > 100 µM (inactive) | > 100 µM (inactive) | > 100 µM (inactive) | > 100 µM (inactive) | > 100 µM (inactive) | > 100 µM (inactive) | > 100 µM (inactive) | > 100 µM (inactive) | > 100 µM (inactive) | > 100 µM (inactive) | > 100 µM (inactive) | > 100 µM (inactive) |  | 
Cc1c(NC(=S)N/N=C\C(=N/NC(=S)Nc2c(C)n(C)n(-c3ccccc3)c2=O)c2ccccc2)c(=O)n(-c2ccccc2)n1C | > 100 µM (inactive) | > 100 µM (inactive) | > 100 µM (inactive) | > 100 µM (inactive) | > 100 µM (inactive) | > 100 | > 100 µM (inactive) | > 100 µM (inactive) | > 100 µM (inactive) |  | > 100 µM (inactive) |  | > 100 µM (inactive) | > 100 µM (inactive) |  | > 100 µM (inactive) | > 100 µM (inactive) | > 100 µM (inactive) |  | 
O=C1N/C(=N/N=C/C(O)C(O)C(O)C(O)CO)N/C1=C\c1cccs1 (configuration not stated) | > 100 µM (inactive) | 73.1 µM (inactive) | 94.4 µM (inactive) | > 100 µM (inactive) | > 100 µM (inactive) | > 100 | > 100 µM (inactive) | > 100 µM (inactive) | > 100 µM (inactive) | 88.5 µM (inactive) | > 100 µM (inactive) | > 100 µM (inactive) | > 100 µM (inactive) | > 100 µM (inactive) | > 100 µM (inactive) |  | > 100 µM (inactive) | > 100 µM (inactive) | > 100 µM (inactive) | > 100 µM (inactive)
Cc1ccc(C)n1-c1ccccc1C1C=Cn2c3c1c(=O)c(OC(C)C)c(OC(C)C)c-3n[nH]c2=O (configuration not stated) | 20.9 µM (inactive) | > 100 µM (inactive) | 23.4 µM (inactive) | 31.8 µM (inactive) | 19.2 µM (inactive) | 21.7 | 40 µM (inactive) | 35.4 µM (inactive) | 21.8 µM (inactive) | 17 µM (inactive) | 35.5 µM (inactive) | 33.7 µM (inactive) | 27 µM (inactive) | > 100 µM (inactive) | 42 µM (inactive) |  | 32.7 µM (inactive) | 39.4 µM (inactive) | 13.3 µM (inactive) | 25.9 µM (inactive)
C[C@H]1[C@H]2[C@H]3CC[C@@H]4[C@@]5(C)CC[C@H](O)C(C)(C)[C@@H]5CC[C@@]4(C)[C@]3(C)C[C@H](O)[C@@]2(C)C[C@H]2O[C@]21C | 19.5 µM (inactive) | 21.4 µM (inactive) | 16.7 µM (inactive) | 25.1 µM (inactive) | 16.1 µM (inactive) | 20.1 | 20.7 µM (inactive) | 25.2 µM (inactive) | 18.9 µM (inactive) | 22.3 µM (inactive) | 16.4 µM (inactive) | 19.6 µM (inactive) | 15.6 µM (inactive) | 14.7 µM (inactive) | 16.9 µM (inactive) |  | 17.2 µM (inactive) | 23.2 µM (inactive) | 32.4 µM (inactive) | 16.4 µM (inactive)
CC1(C)CCC2=C(O1)/C(=N\Nc1ccccc1)c1ccccc1C2=O | 15.8 µM (inactive) | 20 µM (inactive) | 27.2 µM (inactive) | 24 µM (inactive) | 16.9 µM (inactive) | 29.6 | 35.4 µM (inactive) | 35.6 µM (inactive) | 30.8 µM (inactive) | 29.4 µM (inactive) | 24 µM (inactive) | 36.2 µM (inactive) | 24.9 µM (inactive) | 24.9 µM (inactive) | 20.3 µM (inactive) |  | 24.8 µM (inactive) | 34.6 µM (inactive) | 56.1 µM (inactive) | 22 µM (inactive)
C/C(=C\Cc1ccc(F)cc1)CCCCCC/C(C)=C/Cc1ccc(F)cc1 | 7.13 µM (inactive) |  | 3.65 µM (inactive) | 9.89 µM (inactive) | 15.8 µM (inactive) | 16.8 | 10.5 µM (inactive) | 30.8 µM (inactive) | 16.5 µM (inactive) | 6.59 µM (inactive) | 22.9 µM (inactive) | 14.4 µM (inactive) | 10 µM (inactive) | 37.8 µM (inactive) | 15.7 µM (inactive) | 18.3 µM (inactive) | 18.1 µM (inactive) | 16.6 µM (inactive) | 8.28 µM (inactive) | 3.91 µM (inactive)
O=C1/C(=C/c2ccc(Cl)cc2)N=C(c2ccccc2)N1c1nc2ccc(Sc3ccccc3)cc2[nH]1 | 25.9 µM (inactive) | 19.8 µM (inactive) | 36.1 µM (inactive) | 30.1 µM (inactive) | 24.2 µM (inactive) | 29.2 | 40.3 µM (inactive) | 29.2 µM (inactive) | 10.2 µM (inactive) | 22.4 µM (inactive) | 35.8 µM (inactive) | 30.1 µM (inactive) | 25.9 µM (inactive) | 41.4 µM (inactive) | 29 µM (inactive) |  | 31.3 µM (inactive) | 14 µM (inactive) | 22.4 µM (inactive) | 23.9 µM (inactive)
COC(=O)C(=CNC(N)=O)C(=O)OC | > 100 µM (inactive) |  | > 100 µM (inactive) | > 100 µM (inactive) | > 100 µM (inactive) | > 100 | > 100 µM (inactive) | 63.4 µM (inactive) | > 100 µM (inactive) | > 100 µM (inactive) | > 100 µM (inactive) | > 100 µM (inactive) | > 100 µM (inactive) |  | > 100 µM (inactive) | > 100 µM (inactive) |  | > 100 µM (inactive) | > 100 µM (inactive) | > 100 µM (inactive)
O=[N+]([O-])c1cccc(/N=N/c2c(O)c(S(=O)(=O)O)cc3cc(S(=O)(=O)O)ccc23)c1 | > 100 µM (inactive) | > 100 µM (inactive) | > 100 µM (inactive) | > 100 µM (inactive) | > 100 µM (inactive) | > 100 | > 100 µM (inactive) | > 100 µM (inactive) | > 100 µM (inactive) | > 100 µM (inactive) | > 100 µM (inactive) | > 100 µM (inactive) | > 100 µM (inactive) | > 100 µM (inactive) | > 100 µM (inactive) | > 100 µM (inactive) | > 100 µM (inactive) | > 100 µM (inactive) | > 100 µM (inactive) | 
N#C[C@H]1Nc2ccccc2[C@@H](O)C1O (some centres not stated) | > 100 µM (inactive) |  | > 100 µM (inactive) | > 100 µM (inactive) | > 100 µM (inactive) | > 100 | > 100 µM (inactive) | > 100 µM (inactive) | > 100 µM (inactive) |  | > 100 µM (inactive) | > 100 µM (inactive) | > 100 µM (inactive) | > 100 µM (inactive) | > 100 µM (inactive) | > 100 µM (inactive) | > 100 µM (inactive) | > 100 µM (inactive) | > 100 µM (inactive) | > 100 µM (inactive)
CC(C(=O)O)c1ccc(-c2ccccc2)c(F)c1 (configuration not stated) [FLURBIPROFEN] | > 100 µM (inactive) |  | > 100 µM (inactive) | > 100 µM (inactive) | > 100 µM (inactive) | > 100 | > 10 µM (inactive) | > 100 µM (inactive) | > 100 µM (inactive) | > 100 µM (inactive) |  | > 100 µM (inactive) | > 100 µM (inactive) | > 100 µM (inactive) | > 100 µM (inactive) | > 100 µM (inactive) | > 100 µM (inactive) | > 100 µM (inactive) | > 100 µM (inactive) | > 100 µM (inactive)
